# Experimental data: ChEMBL document CHEMBL3425503, “Synthesis and studies on the mGluR agonist activity of FAP4 stereoisomers” (Bioorg Med Chem Lett, 2015)
# Activity calls are given as the source filed them. The calls are words filed in the database; no cut-off is given here.
# How the values were obtained:
# Type in all cases: functional, cell-based
# [1] = target: Metabotropic glutamate receptor 6 (Rattus norvegicus, UniProt P35349); experiment: Agonist activity at rat mGluR6 expressed in HEK293 cells assessed as induction of inositol phosphate production by HTRF assay
# [2] = target: Metabotropic glutamate receptor 4 (Rattus norvegicus, UniProt P31423); experiment: Agonist activity at rat mGluR4 expressed in HEK293 cells assessed as induction of inositol phosphate production by HTRF assay
# [3] = target: Metabotropic glutamate receptor 7 (Rattus norvegicus, UniProt P35400); experiment: Agonist activity at rat mGluR7 expressed in HEK293 cells assessed as induction of inositol phosphate production by HTRF assay
# [4] = target: Metabotropic glutamate receptor 2 (Rattus norvegicus, UniProt P31421); experiment: Agonist activity at rat mGluR2 expressed in HEK293 cells assessed as induction of inositol phosphate production by HTRF assay
# [5] = target: Metabotropic glutamate receptor 8 (Rattus norvegicus, UniProt P70579); experiment: Agonist activity at rat mGluR8 expressed in HEK293 cells assessed as induction of inositol phosphate production by HTRF assay
# [6] = target: Metabotropic glutamate receptor 1 (Rattus norvegicus) (UniProt P23385); experiment: Agonist activity at rat mGluR1 expressed in HEK293 cells assessed as induction of inositol phosphate production at 100 uM by HTRF assay
# [7] = target: Metabotropic glutamate receptor 5 (Rattus norvegicus) (UniProt P31424); experiment: Agonist activity at rat mGluR5 expressed in HEK293 cells assessed as induction of inositol phosphate production at 100 uM by HTRF assay
# Chain of Metabotropic glutamate receptor 6 (P35349 whole entry): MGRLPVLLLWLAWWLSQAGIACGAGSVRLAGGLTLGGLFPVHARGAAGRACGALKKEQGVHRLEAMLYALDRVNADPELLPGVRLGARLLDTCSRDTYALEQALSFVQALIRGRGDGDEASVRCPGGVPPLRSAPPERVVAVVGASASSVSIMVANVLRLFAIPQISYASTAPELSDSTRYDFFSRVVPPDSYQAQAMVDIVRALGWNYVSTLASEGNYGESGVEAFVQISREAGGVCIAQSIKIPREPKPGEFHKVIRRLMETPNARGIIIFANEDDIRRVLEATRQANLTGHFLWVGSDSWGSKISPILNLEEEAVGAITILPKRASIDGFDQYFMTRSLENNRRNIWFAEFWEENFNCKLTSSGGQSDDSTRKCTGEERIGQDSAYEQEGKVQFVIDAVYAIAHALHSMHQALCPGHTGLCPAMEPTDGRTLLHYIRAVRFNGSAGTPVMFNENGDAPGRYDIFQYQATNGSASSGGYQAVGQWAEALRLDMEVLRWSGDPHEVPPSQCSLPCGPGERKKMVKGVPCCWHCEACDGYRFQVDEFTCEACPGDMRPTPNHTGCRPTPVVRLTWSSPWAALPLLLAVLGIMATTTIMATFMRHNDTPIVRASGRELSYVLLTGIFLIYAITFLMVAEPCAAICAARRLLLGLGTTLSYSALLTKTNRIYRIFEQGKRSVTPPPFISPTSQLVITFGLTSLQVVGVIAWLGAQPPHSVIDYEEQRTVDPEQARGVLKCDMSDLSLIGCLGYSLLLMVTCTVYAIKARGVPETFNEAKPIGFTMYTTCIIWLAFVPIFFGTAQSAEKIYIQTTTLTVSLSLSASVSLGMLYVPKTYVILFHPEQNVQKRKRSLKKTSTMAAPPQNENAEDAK
# Chain of Metabotropic glutamate receptor 8 (P70579 whole entry): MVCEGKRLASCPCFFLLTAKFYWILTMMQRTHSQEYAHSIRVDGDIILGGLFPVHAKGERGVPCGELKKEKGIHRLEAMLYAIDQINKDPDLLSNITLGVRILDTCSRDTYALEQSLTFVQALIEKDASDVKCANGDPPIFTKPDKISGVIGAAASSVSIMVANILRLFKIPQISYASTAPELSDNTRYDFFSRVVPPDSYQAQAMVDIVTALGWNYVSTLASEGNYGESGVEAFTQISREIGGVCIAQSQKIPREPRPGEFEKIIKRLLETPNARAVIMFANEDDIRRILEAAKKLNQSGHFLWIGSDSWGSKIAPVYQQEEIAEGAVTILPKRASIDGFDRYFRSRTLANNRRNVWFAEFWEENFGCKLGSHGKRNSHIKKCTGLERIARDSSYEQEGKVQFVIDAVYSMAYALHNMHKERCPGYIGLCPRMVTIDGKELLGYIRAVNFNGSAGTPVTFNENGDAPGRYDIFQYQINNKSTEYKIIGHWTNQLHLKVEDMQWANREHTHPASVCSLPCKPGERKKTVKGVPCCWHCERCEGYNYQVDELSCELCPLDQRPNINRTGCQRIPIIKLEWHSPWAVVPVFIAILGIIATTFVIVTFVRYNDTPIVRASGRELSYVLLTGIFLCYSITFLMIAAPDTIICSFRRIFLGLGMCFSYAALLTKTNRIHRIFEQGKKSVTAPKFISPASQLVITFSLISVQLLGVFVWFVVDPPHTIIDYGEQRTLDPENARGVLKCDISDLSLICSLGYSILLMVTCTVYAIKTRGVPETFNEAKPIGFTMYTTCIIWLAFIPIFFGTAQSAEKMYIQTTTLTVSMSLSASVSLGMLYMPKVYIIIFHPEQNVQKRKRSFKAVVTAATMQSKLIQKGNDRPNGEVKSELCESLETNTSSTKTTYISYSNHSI
# Chain of Metabotropic glutamate receptor 7 (P35400 whole entry): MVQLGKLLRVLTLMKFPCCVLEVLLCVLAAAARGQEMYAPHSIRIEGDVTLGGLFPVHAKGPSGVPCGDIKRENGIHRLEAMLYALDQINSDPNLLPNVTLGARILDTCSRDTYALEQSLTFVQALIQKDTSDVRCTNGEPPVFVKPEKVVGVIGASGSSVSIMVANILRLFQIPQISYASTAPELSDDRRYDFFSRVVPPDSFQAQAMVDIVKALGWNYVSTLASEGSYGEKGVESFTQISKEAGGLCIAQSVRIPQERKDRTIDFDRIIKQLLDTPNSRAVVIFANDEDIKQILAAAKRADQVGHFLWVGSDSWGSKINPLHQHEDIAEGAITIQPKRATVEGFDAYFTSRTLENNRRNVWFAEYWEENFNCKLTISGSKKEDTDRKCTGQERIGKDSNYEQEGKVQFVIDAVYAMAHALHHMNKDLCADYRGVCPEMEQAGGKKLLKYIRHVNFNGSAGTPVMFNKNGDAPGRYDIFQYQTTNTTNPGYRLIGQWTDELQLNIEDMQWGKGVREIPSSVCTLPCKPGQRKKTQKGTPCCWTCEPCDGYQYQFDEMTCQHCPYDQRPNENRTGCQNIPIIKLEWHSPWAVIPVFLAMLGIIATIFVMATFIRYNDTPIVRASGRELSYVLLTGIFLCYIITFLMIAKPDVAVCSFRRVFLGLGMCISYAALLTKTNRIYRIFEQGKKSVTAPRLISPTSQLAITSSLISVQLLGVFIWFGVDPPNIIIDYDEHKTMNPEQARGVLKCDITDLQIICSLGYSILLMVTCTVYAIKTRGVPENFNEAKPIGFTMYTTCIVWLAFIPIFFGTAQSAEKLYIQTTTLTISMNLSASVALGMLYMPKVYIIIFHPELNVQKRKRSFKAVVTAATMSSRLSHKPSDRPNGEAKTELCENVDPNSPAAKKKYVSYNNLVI
# Chain of Metabotropic glutamate receptor 4 (P31423 whole entry): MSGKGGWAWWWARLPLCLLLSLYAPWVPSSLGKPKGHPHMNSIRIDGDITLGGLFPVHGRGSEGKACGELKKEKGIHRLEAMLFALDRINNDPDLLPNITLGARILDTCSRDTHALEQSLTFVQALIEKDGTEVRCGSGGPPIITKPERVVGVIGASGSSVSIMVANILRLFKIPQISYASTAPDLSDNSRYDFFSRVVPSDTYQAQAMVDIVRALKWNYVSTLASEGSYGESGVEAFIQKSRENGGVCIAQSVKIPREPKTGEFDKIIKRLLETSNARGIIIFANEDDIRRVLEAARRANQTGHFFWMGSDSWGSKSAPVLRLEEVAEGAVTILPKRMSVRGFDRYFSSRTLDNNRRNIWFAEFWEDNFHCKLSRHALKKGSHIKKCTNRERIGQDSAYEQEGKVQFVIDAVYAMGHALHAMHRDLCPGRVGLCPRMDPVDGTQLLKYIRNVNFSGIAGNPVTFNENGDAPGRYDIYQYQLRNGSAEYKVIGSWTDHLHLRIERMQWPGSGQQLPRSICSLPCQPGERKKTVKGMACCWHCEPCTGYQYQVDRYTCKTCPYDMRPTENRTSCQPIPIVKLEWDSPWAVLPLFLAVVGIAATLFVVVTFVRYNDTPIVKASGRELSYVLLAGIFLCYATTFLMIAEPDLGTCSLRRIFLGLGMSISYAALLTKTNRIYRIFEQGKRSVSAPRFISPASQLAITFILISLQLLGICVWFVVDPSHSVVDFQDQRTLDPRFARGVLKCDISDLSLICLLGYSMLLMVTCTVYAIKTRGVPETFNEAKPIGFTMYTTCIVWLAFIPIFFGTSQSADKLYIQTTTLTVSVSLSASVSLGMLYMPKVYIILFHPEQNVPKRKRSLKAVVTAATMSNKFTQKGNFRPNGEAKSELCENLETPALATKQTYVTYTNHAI
# Chain of Metabotropic glutamate receptor 2 (P31421 whole entry): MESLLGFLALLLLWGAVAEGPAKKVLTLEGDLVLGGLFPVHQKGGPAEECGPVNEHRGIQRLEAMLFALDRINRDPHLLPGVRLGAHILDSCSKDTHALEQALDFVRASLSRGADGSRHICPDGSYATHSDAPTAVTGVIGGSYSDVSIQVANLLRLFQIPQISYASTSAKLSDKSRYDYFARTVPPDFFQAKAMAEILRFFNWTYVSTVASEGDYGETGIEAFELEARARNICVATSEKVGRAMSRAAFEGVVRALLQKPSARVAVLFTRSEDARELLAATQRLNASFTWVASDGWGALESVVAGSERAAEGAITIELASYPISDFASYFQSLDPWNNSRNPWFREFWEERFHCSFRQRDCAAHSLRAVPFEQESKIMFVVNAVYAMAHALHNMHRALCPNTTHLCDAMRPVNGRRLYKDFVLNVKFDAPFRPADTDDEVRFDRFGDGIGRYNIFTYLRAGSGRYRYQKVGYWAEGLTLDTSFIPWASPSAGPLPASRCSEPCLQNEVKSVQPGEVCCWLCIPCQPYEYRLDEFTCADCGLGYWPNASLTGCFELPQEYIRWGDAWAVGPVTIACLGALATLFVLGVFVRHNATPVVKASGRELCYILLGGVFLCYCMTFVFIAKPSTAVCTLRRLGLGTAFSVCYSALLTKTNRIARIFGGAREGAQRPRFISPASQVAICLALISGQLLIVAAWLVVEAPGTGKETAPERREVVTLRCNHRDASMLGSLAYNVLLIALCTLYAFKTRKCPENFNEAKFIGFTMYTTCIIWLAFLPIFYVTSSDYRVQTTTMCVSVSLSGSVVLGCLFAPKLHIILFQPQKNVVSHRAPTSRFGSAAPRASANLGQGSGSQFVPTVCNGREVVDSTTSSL
SMILES,EC50 [1] [µM],EC50 [2] [µM],EC50 [3] [µM],EC50 [5] [µM],other results
NC1(C(=O)O)CC1(F)CP(=O)(O)O (racemic; form 1) [listing 1 of 2 here],6.01,0.3,> 100,1.25,EC50 [4]: > 100 µM
NC1(C(=O)O)CC1(F)CP(=O)(O)O (stereo in doubt; form 2),,135,,,
"NC1(C(=O)O)CC1(F)CP(=O)(O)O (single isomer, unassigned; form 2)",,0.1,,,
NC1(C(=O)O)CC1(F)CP(=O)(O)O (racemic; form 1) [listing 2 of 2 here],,,,,Activity [6]: inactive; Activity [7]: inactive
NC1(C(=O)O)CC1(F)CP(=O)(O)O (stereo in doubt; form 1),,11.4,,,
NC1(C(=O)O)CC1(F)CP(=O)(O)O (racemic; form 2),,0.1,,,
"NC1(C(=O)O)CC1(F)CP(=O)(O)O (single isomer, unassigned; form 1)",,0.12,,,
N[C@@H](CCC(=O)O)C(=O)O [GLUTAMIC ACID],82.2,12.6,> 100,21.5,
N[C@@H](CCP(=O)(O)O)C(=O)O,3.45,0.03,426,0.11,
N[C@@]1(C(=O)O)C[C@H]1CP(=O)(O)O,,0.03,,,
